Experimental data as given in PMC5777239 (Science signaling, 2017).

Assays:
[1] = system: RXRA (Gal4-RXRA reporter); experiment: Gal4-RXRA UAS-GFP Kit+ reporter cells treated with plasma from treated mice; assay type: in vivo, mouse; conditions: Kit+ cells transduced with Gal4-RXRA, plasma from mice exposed to the agent
RXRA [2] = molecular target: T1, RXRA (Homo sapiens, UniProt P19793); conditions: cited from earlier work
T1 sequence (P19793 1-462): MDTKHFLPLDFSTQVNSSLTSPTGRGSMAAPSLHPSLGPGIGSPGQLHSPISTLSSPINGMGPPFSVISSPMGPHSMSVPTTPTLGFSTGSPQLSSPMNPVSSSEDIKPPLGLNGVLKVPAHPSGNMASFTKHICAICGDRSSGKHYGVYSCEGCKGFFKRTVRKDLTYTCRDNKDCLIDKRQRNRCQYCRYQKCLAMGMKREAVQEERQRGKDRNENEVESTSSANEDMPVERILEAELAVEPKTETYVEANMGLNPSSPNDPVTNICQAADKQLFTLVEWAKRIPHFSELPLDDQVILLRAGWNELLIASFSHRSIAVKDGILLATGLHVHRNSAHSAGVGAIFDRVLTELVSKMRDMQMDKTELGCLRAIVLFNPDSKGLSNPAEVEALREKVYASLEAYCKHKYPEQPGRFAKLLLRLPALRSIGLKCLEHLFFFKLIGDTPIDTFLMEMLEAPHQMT

[3] = molecular target: T2, RXRA (Gal4-DBD fused to RXRA-LBD) (Homo sapiens, UniProt P19793); assay type: cell-based, mouse; conditions: primary UAS-GFP Kit+ cells transduced with Gal4-RXRA; synthesized fatty acids
T2 sequence (P19793 227-458 limits assumed): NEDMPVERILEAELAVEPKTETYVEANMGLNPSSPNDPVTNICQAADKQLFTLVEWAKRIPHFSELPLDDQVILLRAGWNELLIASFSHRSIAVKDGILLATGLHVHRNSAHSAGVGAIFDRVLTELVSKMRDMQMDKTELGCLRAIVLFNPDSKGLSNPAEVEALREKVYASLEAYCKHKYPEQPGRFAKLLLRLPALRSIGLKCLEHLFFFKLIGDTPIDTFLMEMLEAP

RXR alpha LBD-GST [4] = molecular target: T3, RXR alpha LBD-GST (Homo sapiens, UniProt P19793); experiment: LanthaScreen TR-FRET Retinoic X Receptor alpha Coactivator assay; assay type: biochemical
T3 sequence (P19793 227-458 limits assumed): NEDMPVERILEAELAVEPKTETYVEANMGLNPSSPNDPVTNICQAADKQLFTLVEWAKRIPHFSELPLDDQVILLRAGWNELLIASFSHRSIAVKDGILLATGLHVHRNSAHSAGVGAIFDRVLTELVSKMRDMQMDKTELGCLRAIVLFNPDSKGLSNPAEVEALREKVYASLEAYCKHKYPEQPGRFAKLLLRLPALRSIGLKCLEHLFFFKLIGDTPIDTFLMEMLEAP

Flag-Gal4 DBD-RXRA LBD = molecular target: T4, Flag-Gal4 DBD-RXRA LBD (Homo sapiens, UniProt P19793); assay type: binding; conditions: 293T-FXP cells treated with serum up to 24 hours
T4 sequence (P19793 227-458 limits assumed): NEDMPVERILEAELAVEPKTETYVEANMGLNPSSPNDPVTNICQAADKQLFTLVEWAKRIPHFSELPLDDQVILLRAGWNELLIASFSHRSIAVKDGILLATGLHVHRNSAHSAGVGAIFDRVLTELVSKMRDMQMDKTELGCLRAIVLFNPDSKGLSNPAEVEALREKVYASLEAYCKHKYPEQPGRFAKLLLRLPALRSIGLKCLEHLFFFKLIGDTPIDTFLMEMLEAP

RXRA [5] = molecular target: T1, RXRA; experiment: DR1x3-TK-Luc luciferase reporter in 293T cells with full-length RXRA; assay type: cell-based; conditions: 40 hour incubation
[6] = system: RXRA (Gal4-RXRA reporter); assay type: in vivo, mouse; conditions: for proportion of GFP+mCherry+ cells in total bone marrow cells / single cell abundance of GFP, mean fluorescence intensity (MFI): Gal4-RXRA transplanted mice; for proportion of GFP+mCherry+ cells in total bone marrow cells: compared to mice without treatment; for single cell abundance of GFP, mean fluorescence intensity (MFI): whole bone marrow cells
[7] = system: mouse hematopoietic cells; assay type: in vivo; conditions: after PHZ treatment, mass spectrometry
RXR alpha LBD-GST [8] = experiment: FRET or BRET

## O=c1[nH]cc(F)c(=O)[nH]1 [5-FU, 5-fluoruracil]
[1]
  UAS-GFP reporter output with plasma from treated mice: did not observe an increase

## CCCCC/C=C\C/C=C\C/C=C\C/C=C\CCCC(=O)O [AA, arachidonic acid]
RXRA [2]
  activation of RXRA in vitro (luciferase reporter): activate RXRA in vitro

## CC/C=C\C/C=C\C/C=C\C/C=C\C/C=C\CCCCCCCC(=O)O [C24:4, (9Z, 12Z, 15Z, 18Z, 21Z)-tetracosa-9,12,15,18,21-tetraenoic acid]
[3]
  activation of the GFP reporter: did not activate the GFP reporter
RXR alpha LBD-GST [4]
  binding of PGC1 and D22 co-activator peptides (TR-FRET): did not lead to binding of either PGC1 or D22
Flag-Gal4 DBD-RXRA LBD
  binding to Flag-Gal4-RXRA in pull-down (MS): bound to RXRA in a time-dependent manner

## CC/C=C\C/C=C\C/C=C\C/C=C\C/C=C\CCCCCCCC(=O)O [C24:5, (9Z, 12Z, 15Z, 18Z, 21Z)-tetracosa-9,12,15,18,21-pentaenoic acid]
RXR alpha LBD-GST [4]
  binding of PGC1 and D22 co-activator peptides (TR-FRET): induced dose-dependent binding of both PGC1 and D22 peptides
RXRA [5]
  activation of DR1-luciferase reporter: could activate a DR1-luciferase reporter
Flag-Gal4 DBD-RXRA LBD
  binding to Flag-Gal4-RXRA in pull-down (MS): bound to RXRA in a time-dependent manner

## CC/C=C\C/C=C\C/C=C\C/C=C\C/C=C\C/C=C\CCC(=O)O [DHA, docosahexaenoic acid]
Flag-Gal4 DBD-RXRA LBD
  binding to Flag-Gal4-RXRA in pull-down (MS): bound to RXRA in a time-dependent manner
RXRA [2]
  activation of RXRA in vitro (luciferase reporter): activate RXRA in vitro

## CC/C=C\C/C=C\C/C=C\C/C=C\C/C=C\CCCCCC(=O)O [DPA, docosapentaenoic acid]
RXRA [2]
  activation of RXRA in vitro (luciferase reporter): activate RXRA in vitro

## NNc1ccccc1 [PHZ, phenylhydrazine]
[6]
  proportion of GFP+mCherry+ cells in total bone marrow cells: increase
  single cell abundance of GFP, mean fluorescence intensity (MFI): increased
[6]; granulopoiesis following PHZ treatment
  WBC peak following treatment: 18-22,000 /μl
[1]
  UAS-GFP reporter output with plasma from treated mice: increased
[7]
  concentrations of fatty acids C24:4 and C24:5 in bone marrow cells: increased two-fold
  concentrations of fatty acids C24:4 and C24:5 in peripheral blood cells: increased three-fold

## Fluorescein-PGC1α peptide
RXR alpha LBD-GST [8]
  EC50 of the ligand C24:5 for induced binding of the peptide: 94 nM
  EC50 of the ligand DHA for induced binding of the peptide: 86 nM

B1: granulocyte colony stimulating factor (protein, UniProt P09919 31-207, looked up)
Granulocyte …: TPLGPASSLPQSFLLKCLEQVRKIQGDGAALQEKLVSECATYKLCHPEELVLLGHSLGIPWAPLSSCPSQALQLAGCLSQLHSGLFLYQGLLQALEGISPELGPTLDTLQLDVADFATTIWQQMEELGMAPALQPTQGAMPAFASAFQRRAGGVLVASHLQSFLEVSYRVLRHLAQP
[6]
  proportion of GFP+mCherry+ cells in total bone marrow cells: increase
  single cell abundance of GFP, mean fluorescence intensity (MFI): increased
[1]
  UAS-GFP reporter output with plasma from treated mice: increased
